ChEMBL document CHEMBL4483862, “Open-source discovery of chemical leads for next-generation chemoprotective antimalarials” (2018)

Tested on: Plasmodium berghei
Assay: Luciferase/luciferin-expressing antifolate-resistant parasites were used to infect a culture of HepG2 cells that were pre-incubated with compounds. Infected hepatocytes emit light due to the luciferase reaction. Assay results are presented as the percent inhibition of light emission compared to control. […]
Assay type: functional
Conditions: sporozoite; for IC90: read-out: LUCIFERASE INFECTION ASSAY - IC90

Row | SMILES | IC90 | also measured
1 | Cc1ccc(-c2nnc3c(C(F)(F)F)nc4ccccc4n23)cc1 | > 10.1 µM | IC50 (HEPG2TOX_HILL_SLOPE 6.88, HEPG2TOX_R_SQUARED 0.907, PBLUC_HILL_SLOPE 7.21, PBLUC_R_SQUARED 0.0351, read-out: LUCIFERASE INFECTION ASSAY - IC50): 8.59 µM
2 | O=C(Nc1ccccc1C(=O)Nc1nnc(C(F)(F)F)s1)c1ccccc1 | 1.89 µM | IC50 (HEPG2TOX_HILL_SLOPE 6.74, HEPG2TOX_R_SQUARED 0.749, PBLUC_HILL_SLOPE 2.08, PBLUC_R_SQUARED 0.449, read-out: LUCIFERASE INFECTION ASSAY - IC50): 0.658 µM
3 | Nc1nc(Cl)cc(Sc2ccc3ccccc3c2)n1 | > 11.5 µM | IC50 (HEPG2TOX_HILL_SLOPE 6.9, HEPG2TOX_R_SQUARED 0.449, read-out: LUCIFERASE INFECTION ASSAY - IC50): > 11.5 µM
4 | COc1cc(NC(=O)N2CCc3nc(NCc4cccc(Oc5ccccc5)c4)ncc3C2)cc(OC)c1OC | > 6.09 µM | IC50 (HEPG2TOX_HILL_SLOPE 6.86, HEPG2TOX_R_SQUARED 0.395, PBLUC_HILL_SLOPE 8.32, PBLUC_R_SQUARED 0.196, read-out: LUCIFERASE INFECTION ASSAY - IC50): 5.31 µM
5 | CC(=O)Nc1ccc(-c2cnc3ccc(-c4ccc(S(C)(=O)=O)cc4)nn23)cc1 | 7.89 µM | IC50 (HEPG2TOX_HILL_SLOPE 6.82, HEPG2TOX_R_SQUARED 0.682, PBLUC_HILL_SLOPE 2.96, PBLUC_R_SQUARED 0.544, read-out: LUCIFERASE INFECTION ASSAY - IC50): 3.75 µM
6 | O=C(Nc1ccccc1)c1cc2sccc2s1 | > 12.7 µM | IC50 (HEPG2TOX_HILL_SLOPE 6.8, HEPG2TOX_R_SQUARED 0.21, read-out: LUCIFERASE INFECTION ASSAY - IC50): > 12.7 µM
7 | CC(C)c1cccc(-c2nc3ccnc(NCc4ccc(N(C)C)cc4)c3[nH]2)c1 | > 10 µM | IC50 (HEPG2TOX_HILL_SLOPE 6.72, HEPG2TOX_R_SQUARED 0.795, PBLUC_HILL_SLOPE 11.9, PBLUC_R_SQUARED 0.428, read-out: LUCIFERASE INFECTION ASSAY - IC50): 8.78 µM
8 | CC1c2ccsc2CCN1C(=S)NC(=O)c1ccc(Cl)cc1 (stereo unspecified) | > 9.4 µM | IC50 (HEPG2TOX_HILL_SLOPE 6.89, HEPG2TOX_R_SQUARED 0.823, PBLUC_HILL_SLOPE 41.7, PBLUC_R_SQUARED 0.0283, read-out: LUCIFERASE INFECTION ASSAY - IC50): 9.18 µM
9 | c1cc(CNc2ncnc3nc[nH]c23)cc(COCc2ccco2)c1 | > 10 µM | IC50 (HEPG2TOX_HILL_SLOPE 6.82, HEPG2TOX_R_SQUARED 0.307, PBLUC_HILL_SLOPE 1.97, PBLUC_R_SQUARED 0.21, read-out: LUCIFERASE INFECTION ASSAY - IC50): 6.9 µM
10 | CCCCN(C)CC(O)Cn1c2ccc(Cl)cc2c2cc(Cl)ccc21 (stereo unspecified) | 6.48 µM | IC50 (HEPG2TOX_HILL_SLOPE 6.86, HEPG2TOX_R_SQUARED 0.608, PBLUC_HILL_SLOPE 4.67, PBLUC_R_SQUARED 0.619, read-out: LUCIFERASE INFECTION ASSAY - IC50): 4.05 µM
11 | O=S(=O)(NC1CCN(c2nn3cc(-c4ccccc4)nc3s2)CC1)c1cccs1 | 3.14 µM | IC50 (HEPG2TOX_HILL_SLOPE 6.79, HEPG2TOX_R_SQUARED 0.144, PBLUC_HILL_SLOPE 1.24, PBLUC_R_SQUARED 0.735, read-out: LUCIFERASE INFECTION ASSAY - IC50): 0.534 µM
12 | Cc1ccc(CSc2nnc(NCc3ccccc3)s2)cc1 | > 10 µM | IC50 (HEPG2TOX_HILL_SLOPE 6.81, HEPG2TOX_R_SQUARED 0.677, read-out: LUCIFERASE INFECTION ASSAY - IC50): > 10 µM
13 | COc1ccc(CCNc2nc(C)nc3sc(-c4ccccc4)cc23)cc1OC | > 10 µM | IC50 (HEPG2TOX_HILL_SLOPE 6.76, HEPG2TOX_R_SQUARED 0.162, read-out: LUCIFERASE INFECTION ASSAY - IC50): > 10 µM
14 | Fc1cccc(-c2nc3ccnc(NCc4ccccc4)c3[nH]2)c1 | 4.56 µM | IC50 (HEPG2TOX_HILL_SLOPE 6.86, HEPG2TOX_R_SQUARED 0.629, PBLUC_HILL_SLOPE 1.32, PBLUC_R_SQUARED 0.696, read-out: LUCIFERASE INFECTION ASSAY - IC50): 0.868 µM
15 | O=C(Cc1cn2ccsc2n1)NNC(=O)c1cccnc1Nc1cccc(C(F)(F)F)c1 | 7.63 µM | IC50 (HEPG2TOX_HILL_SLOPE 6.77, HEPG2TOX_R_SQUARED 0.513, PBLUC_HILL_SLOPE 2.49, PBLUC_R_SQUARED 0.696, read-out: LUCIFERASE INFECTION ASSAY - IC50): 3.16 µM
16 | CC1=C(C(=O)OC(C)C)C(c2ccccc2)n2nc(-c3cccs3)nc2N1 (stereo unspecified) | > 10 µM | IC50 (HEPG2TOX_HILL_SLOPE 6.88, HEPG2TOX_R_SQUARED 0.357, read-out: LUCIFERASE INFECTION ASSAY - IC50): > 10 µM
17 | O=C(CCn1ccnn1)Nc1ccc(Sc2ccc(Br)cc2)cc1 | > 10 µM | IC50 (HEPG2TOX_HILL_SLOPE 6.85, HEPG2TOX_R_SQUARED 0.647, PBLUC_HILL_SLOPE 1.94, PBLUC_R_SQUARED 0.683, read-out: LUCIFERASE INFECTION ASSAY - IC50): 6.08 µM

Row | SMILES | IC90 | also measured
18 | CCOC(=O)CN(c1cc(OC(C)C)c(Cl)cc1Cl)S(=O)(=O)c1ccc(Cl)cc1 | > 6.86 µM | IC50 (HEPG2TOX_HILL_SLOPE 6.82, HEPG2TOX_R_SQUARED 0.403, PBLUC_HILL_SLOPE 1.36, PBLUC_R_SQUARED 0.622, read-out: LUCIFERASE INFECTION ASSAY - IC50): 3.13 µM
19 | COc1nc2c(c(-c3c(F)cccc3Cl)c1C#N)Cc1ccccc1-2 | > 9.41 µM | IC50 (HEPG2TOX_HILL_SLOPE 6.94, HEPG2TOX_R_SQUARED 0.218, PBLUC_HILL_SLOPE 33.2, PBLUC_R_SQUARED 0.233, read-out: LUCIFERASE INFECTION ASSAY - IC50): 9 µM
20 | COc1ccc(-c2csc3ncnc(NCc4cccnc4)c23)cc1 | > 10 µM | IC50 (HEPG2TOX_HILL_SLOPE 6.97, HEPG2TOX_R_SQUARED 0.88, PBLUC_HILL_SLOPE 2.74, PBLUC_R_SQUARED 0.795, read-out: LUCIFERASE INFECTION ASSAY - IC50): 6.71 µM
21 | Cc1cccc(N2CCN(C(=O)c3ccccc3SCC(=O)Nc3ccc(F)cc3)CC2)c1C | > 10 µM | IC50 (HEPG2TOX_HILL_SLOPE 6.74, HEPG2TOX_R_SQUARED 0.191, PBLUC_HILL_SLOPE 2.5, PBLUC_R_SQUARED 0.41, read-out: LUCIFERASE INFECTION ASSAY - IC50): 5.48 µM
22 | Cc1cccc(Nc2ccccc2C(=O)OCC(=O)Nc2cccc(C#N)c2)c1C | > 10 µM | IC50 (HEPG2TOX_HILL_SLOPE 6.86, HEPG2TOX_R_SQUARED 0.37, PBLUC_HILL_SLOPE 1.78, PBLUC_R_SQUARED 0.801, read-out: LUCIFERASE INFECTION ASSAY - IC50): 3.16 µM
23 | O=c1c(Cl)cc(C(F)(F)F)cn1Cc1csc(Nc2ccccc2)n1 | > 10 µM | IC50 (HEPG2TOX_HILL_SLOPE 6.73, HEPG2TOX_R_SQUARED 0.639, PBLUC_HILL_SLOPE 3.67, PBLUC_R_SQUARED 0.234, read-out: LUCIFERASE INFECTION ASSAY - IC50): 8.88 µM
24 | O=C(CC1CCCC1)N1CCc2nc(NCc3cccc(Oc4ccccc4)c3)ncc2C1 | > 7.46 µM | IC50 (HEPG2TOX_HILL_SLOPE 6.79, HEPG2TOX_R_SQUARED 0.796, PBLUC_HILL_SLOPE 75.4, PBLUC_R_SQUARED 0.123, read-out: LUCIFERASE INFECTION ASSAY - IC50): 7.45 µM
25 | CC1CCCC(N2CC(C(=O)Nc3nc(-c4ccccn4)cs3)CC2=O)C1C (stereo unspecified) | 3.66 µM | IC50 (HEPG2TOX_HILL_SLOPE 6.97, HEPG2TOX_R_SQUARED 0.551, PBLUC_HILL_SLOPE 16.8, PBLUC_R_SQUARED 0.476, read-out: LUCIFERASE INFECTION ASSAY - IC50): 3.21 µM
26 | CNc1nc2cnc(Nc3cccc(OC(F)(F)F)c3)cc2n1CCOC | > 10 µM | IC50 (HEPG2TOX_HILL_SLOPE 6.78, HEPG2TOX_R_SQUARED 0.0669, read-out: LUCIFERASE INFECTION ASSAY - IC50): > 10 µM
27 | CCN(CC(O)COc1ccccc1-c1ccccc1)C1CCCCC1 (stereo unspecified) | 9.13 µM | IC50 (HEPG2TOX_HILL_SLOPE 6.72, HEPG2TOX_R_SQUARED 0.0493, PBLUC_HILL_SLOPE 495, PBLUC_R_SQUARED 0.169, read-out: LUCIFERASE INFECTION ASSAY - IC50): 9.09 µM
28 | COc1ccccc1NS(=O)(=O)c1ccc2c(c1)N=Cc1c(C)nn(-c3ccc(Cl)cc3)c1O2 | > 10 µM | IC50 (HEPG2TOX_HILL_SLOPE 6.8, HEPG2TOX_R_SQUARED 0.772, PBLUC_HILL_SLOPE 15.5, PBLUC_R_SQUARED 0.126, read-out: LUCIFERASE INFECTION ASSAY - IC50): 9.36 µM
29 | O=[N+]([O-])c1ccc(N2CCN(c3ncccc3C(F)(F)F)CC2)nc1 | > 9.34 µM | IC50 (HEPG2TOX_HILL_SLOPE 6.77, HEPG2TOX_R_SQUARED 0.465, read-out: LUCIFERASE INFECTION ASSAY - IC50): > 9.34 µM
30 | Cc1cccc(OCCNC(=O)c2cc(S(=O)(=O)N3CCOCC3)ccc2N2CCOCC2)c1 | > 10 µM | IC50 (HEPG2TOX_HILL_SLOPE 6.77, HEPG2TOX_R_SQUARED 0.742, read-out: LUCIFERASE INFECTION ASSAY - IC50): > 10 µM
31 | C/C(=N\NC(=S)Nc1cccc(C(F)(F)F)c1)c1cc(Cl)ccc1O | > 8.51 µM | IC50 (HEPG2TOX_HILL_SLOPE 6.81, HEPG2TOX_R_SQUARED 0.836, PBLUC_HILL_SLOPE 11, PBLUC_R_SQUARED 0.0541, read-out: LUCIFERASE INFECTION ASSAY - IC50): 7.79 µM
32 | COc1ccc([N+]2=C3CCCCCN3CC2(O)c2ccc(-c3ccccc3)cc2)cc1 (stereo unspecified) | > 10 µM | IC50 (HEPG2TOX_HILL_SLOPE 6.91, HEPG2TOX_R_SQUARED 0.498, PBLUC_HILL_SLOPE 1.91, PBLUC_R_SQUARED 0.528, read-out: LUCIFERASE INFECTION ASSAY - IC50): 3.24 µM
33 | CC(Cc1cccs1)N(Cc1ccc(Cl)cc1)C(=O)c1cc(S(=O)(=O)N2CCOCC2)c(Cl)cc1Cl (stereo unspecified) | > 10 µM | IC50 (HEPG2TOX_HILL_SLOPE 6.93, HEPG2TOX_R_SQUARED 0.0438, read-out: LUCIFERASE INFECTION ASSAY - IC50): > 10 µM
